Data reported in patent US12312332B2 (Merck Sharp & Dohme LLC., priority 2019, dated 2025).
pEC50: −log10 of the molar value.

Molecular target: T1, human OX2R (Homo sapiens, UniProt O43614)
T1 construct: expressed in transfected cells; host or cells: Chinese hamster ovary (CHO) cells, kept under G418 selection
T1 sequence (O43614 1-444): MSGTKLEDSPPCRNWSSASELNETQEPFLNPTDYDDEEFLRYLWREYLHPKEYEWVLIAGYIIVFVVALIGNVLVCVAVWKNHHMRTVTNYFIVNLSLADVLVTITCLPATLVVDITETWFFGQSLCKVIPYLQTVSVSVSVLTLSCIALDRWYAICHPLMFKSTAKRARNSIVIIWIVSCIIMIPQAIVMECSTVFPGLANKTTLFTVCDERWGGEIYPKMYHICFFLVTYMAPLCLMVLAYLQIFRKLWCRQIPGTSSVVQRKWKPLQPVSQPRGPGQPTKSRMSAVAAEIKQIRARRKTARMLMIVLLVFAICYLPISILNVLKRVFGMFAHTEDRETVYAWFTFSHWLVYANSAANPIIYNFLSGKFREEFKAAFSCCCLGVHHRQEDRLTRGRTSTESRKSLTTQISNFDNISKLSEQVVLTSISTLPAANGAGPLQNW
Assay: IPOne (IP-One) orexin receptor agonist assay in CHO cells expressing human OX2R
Type: cell-based
Conditions: for pEC50: CHO cells expressing human OX2R, IP-One detection, 2 hours incubation, four parameter logistic fit, read-out: OX2R Potency, EC50; for % max agonist effect (Emax): human OX2R, percentage of sample raw value/mean max effect (reference compound at 1 uM with 100% activity)
Text: The utility of the compounds in accordance with the present invention as orexin receptor OX1R and/or OX2R agonists may be readily determined without undue experimentation by methodology well known in the art. Both the OX1R and/or OX2R G-coupled protein receptors (GPCRs) couple through the Gaq signaling pathway, which ultimately promotes calcium mobilization via inositol triphosphate (IP3) production. […] The utility of the compounds in accordance with the present invention as orexin receptor OX1R and/or OX2R agonists may be determined utilizing this assay.
In a typical experiment, the OX1 and OX2 receptor agonist activity is determined in accordance with the following general experimental method. Chinese hamster ovary (CHO) cells expressing human OX1R and/or the human OX2R were grown in Iscove's modified DMEM containing glutaMAX™, 1% G418, 100 U/mL penicillin, 100 μg/mL streptomycin and 10% heat-inactivated qualified fetal bovine serum (FBS). […] During this incubation, IP-one detection reagents were prepared (38:1:1 lysis buffer:D2:AB-cryptate reagents).
For each compound, data were fit to a four parameter logistic fit (ActivityBase software) and the EC50 was reported as the inflection point of the resulting curve. Percent effect for each test compound was determined as the percentage of sample raw value/mean max effect, where the mean max effect was derived from the mean raw value of 32 control wells per assay plate (using Orexin A (cat #003-30) at 1 μM for human OX1R and a reference compound at 1 uM with 100% activity previously established by comparison to Orexin A for human OX2R). The intrinsic orexin receptor agonist activity of a compound which may be used in the present invention may be determined by these assays.

Row | pEC50 | % max agonist effect (Emax) [%] | SMILES
1 | 7.23 | 100 | Cc1cccnc1N1CC[C@H](NS(C)(=O)=O)[C@@H]1CO[C@H]1CC[C@@H](c2ccccc2)CC1 [Example 125, N-((2R,3S)-1-(3-methylpyridin-2-yl)-2-((((CIS)-4-phenylcyclohexyl)oxy)methyl)pyrrolidin-3-yl)methanesulfonamide]
2 | < 5.00 | 7.9 | CS(=O)(=O)N[C@H]1CCN(c2ccc(C(F)(F)F)cc2)[C@H]1CO[C@H]1CC[C@@H](c2ccccc2)CC1 (relative stereo) [Example 3, N-((CIS)-2-((((CIS)-4-phenylcyclohexyl)oxy)methyl)-1-(4-(trifluoromethyl)phenyl)pyrrolidin-3-yl)methanesulfonamide]
3 | 6.52 | 98.8 | CS(=O)(=O)N[C@H]1CCN(c2cc(OC(F)F)c(F)cn2)[C@H]1CO[C@H]1CC[C@@H](c2ccccc2)CC1 [Example 140, N-((2R,3S)-1-(4-(difluoromethoxy)-5-fluoropyridin-2-yl)-2-((((CIS)-4-phenylcyclohexyl)oxy)methyl)pyrrolidin-3-yl)methanesulfonamide]

The next lines start with the molecule.

Row | SMILES | pEC50 | % max agonist effect (Emax) [%]
4 | COc1ccnc(N2CC[C@H](NS(C)(=O)=O)[C@@H]2CO[C@H]2CC[C@@H](c3ccccc3)CC2)c1F [Example 115, N-((2R,3S)-1-(3-fluoro-4-methoxypyridin-2-yl)-2-((((CIS)-4-phenylcyclohexyl)oxy)methyl)pyrrolidin-3-yl)methanesulfonamide] | 5.62 | 93.7
5 | CS(=O)(=O)N[C@H]1CCN(c2cncc(C#N)c2)[C@H]1CO[C@H]1CC[C@@H](c2ccccc2)CC1 [Example 133, N-((2R,3S)-1-(5-cyanopyridin-3-yl)-2-((((CIS)-4-phenylcyclohexyl)oxy)methyl)pyrrolidin-3-yl)methanesulfonamide] | 6.00 | 100.3
6 | CS(=O)(=O)N[C@H]1CCN(c2csc(-c3ccncc3)n2)[C@H]1CO[C@H]1CC[C@@H](c2ccccc2)CC1 (relative stereo) [Example 13, N-((CIS)-2-((((CIS)-4-phenylcyclohexyl)oxy)methyl)-1-(2-(pyridin-4-yl)thiazol-4-yl)pyrrolidin-3-yl)methanesulfonamide] | 5.76 | 83.9
7 | CS(=O)(=O)N[C@H]1CCN(c2ccncc2)[C@H]1CO[C@H]1CC[C@@H](c2ccccc2)CC1 [Example 57, N-((2R,3S)-2-((((CIS)-4-phenylcyclohexyl)oxy)methyl)-1-(pyridin-4-yl)pyrrolidin-3-yl)methanesulfonamide] | 5.39 | 87.6
8 | Cn1cnc(N2CC[C@H](NS(C)(=O)=O)[C@@H]2CO[C@H]2CC[C@@H](c3ccccc3)CC2)n1 (relative stereo) [Example 5, N-((CIS)-1-(1-methyl-1H-1,2,4-triazol-3-yl)-2-((((CIS)-4-phenylcyclohexyl)oxy)methyl)pyrrolidin-3-yl)methanesulfonamide] | 5.22 | 80.4
9 | CC(C)(O)c1cc(N2CC[C@H](NS(C)(=O)=O)[C@@H]2CO[C@H]2CC[C@@H](c3ccccc3)CC2)ccn1 [Example 44, N-((2R,3S)-1-(2-(2-hydroxypropan-2-yl)pyridin-4-yl)-2-((((CIS)-4-phenylcyclohexyl)oxy)methyl)pyrrolidin-3-yl)methanesulfonamide] | < 5.00 | 22.0
10 | CC(C)(O)c1ccc(N2CC[C@H](NS(C)(=O)=O)[C@@H]2CO[C@H]2CC[C@@H](c3ccccc3)CC2)cn1 [Example 61, N-((2R,3S)-1-(6-(2-hydroxypropan-2-yl)pyridin-3-yl)-2-((((CIS)-4-phenylcyclohexyl)oxy)methyl)pyrrolidin-3-yl)methanesulfonamide] | 7.42 | 101.3
